In patent US7462716B2, “Statin derivatives” (Nicox S.A., priority 2003, dated 2008):
Like-named read-outs stand apart in the source and are kept apart here. Marks after values point to notes of the source that are not given here. Blank lines part the entries; values can stand above or below the molecule they belong to.

What was measured:
Tissue factor (TF) = experiment: Tissue factor expression in LPS-stimulated blood mononuclear cells; format: cell-based; settings: 50 μM; human MNC, LPS 1 μg/ml, 3 h; mean ± SEM
Protocol: Tissue factor (TF) is a major regulator of homeostasis and thrombosis. […] MNC were obtained from fresh blood by density gradient (Ficoll-Hypaque) centrifugation and resuspended in serum-free RPMI medium at the concentration of 2−3×10^6/ml. […] After incubation for 3 h at 37° C., TF expression in MNC was assessed by 1) functional assay (Semeraro et al., 1983. Immunology; 50: 529-35) on intact cells; 2) immunological assay (Imubind, Instrumentation Laboratory, Milan) on Triton X-100 cell extracts; 3) RT-PCR (Rossiello et al. Thromb Haemost 2000; 84:453-59).

[1] = test system: U46619-induced pulmonary thromboembolism; experiment: Protection from U46619-induced pulmonary thromboembolism; format: in vivo, CD-1 mice; settings: mice, U46619 0.2 mg/kg iv
Protocol: 1 (equimolar doses) or vehicle. 1-3 hrs later the animals were injected into a tail vein with U46619 (0.2 mg/kg), a stable TxA2 analog. As previously described (Momi et al., Eur. J. Pharmacol. 397:177-185, 2000), this dose of the agonist caused 80 to 90% mortality within 3 min. in the control group. In each experimental session at least six animals per treatment group were tested; control groups were run at the beginning and at the end of every experimental session. Protection against agonist-induced thromboembolism was expressed as (1-Tdrug/Tsaline)×100, were Tdrug is the mortality rate in drug-treated mice, and Tsaline is the number of non surviving control animals which received […] only.
The results were expressed as percentage of protection from U46619-induced pulmonary thromboembolism as compared to the control group.

iNOS = experiment: Western blot of iNOS protein in LPS-stimulated RAW264.7 cells; format: cell-based
Protocol: (§1) The experiments were performed using RAW264.7 monocyte macrophage cell line. […] At the end of the incubation, the cells were harvested in lysis buffer and the protein content was measured. Western Blot of inducible iNOS and COX2 proteins (representatives of an ongoing inflammatory process) was performed. The obtained results reported in Table 2 are expressed as % reduction of optical density of each treatment vs. LPS-treated samples.

[2] = test system: isolated rabbit thoracic aorta preparations; experiment: Vascular tone: relaxation of noradrenaline-precontracted isolated aortic rings; settings: Oryctolagus cuniculus; rabbit thoracic aorta rings contracted with noradrenaline 1 μM, functional endothelium; ± sem; read-out: IC50 (concentration giving 50% reversal of NA contraction)
Protocol: The ability of statin nitroderivatives to induce vasorelaxation in comparison to native statins, was tested in vitro in isolated rabbit thoracic aorta preparations (Wanstall J. C. et al., Br. J. Pharmacol., 134:463-472, 2001). Male New Zealand rabbits were anaesthetized with thiopental-Na (50 mg/kg, iv), sacrificed by exsanguinations and then the thorax was opened and the aorta dissected. Single ring preparations (4 mm in length) of thoracic aorta were set up in physiological salt solution (PSS) at 37° C. in small organ chambers (5 ml). The composition of PSS was (mM): NaCl 130, NaHCO3 14.9, KH2PO4 1.2, MgSO4 1.2, HEPES 10, CaCl2, ascorbic acid […] and glucose 1.1 (95% O2/5% CO2; pH 7.4). Each ring was mounted under 2 g passive tension in 5 ml organ bath. Isometric tension was recorded with a Grass transducer (Grass FT03) attached to a BIOPAC MP150 System. Preparations were allowed to equilibrate for 1 h, then contracted submaximally with noradrenaline (NA, 1 μM) and, when the contraction was stable, acetylcholine (ACh, 10 μM) was added. A relaxant response to ACh indicated the presence of a functional endothelium. When a stable precontraction was reached, a cumulative concentration-response curve to either of the vasorelaxant agents was obtained in the presence of a functional endothelium. Time intervals between different concentrations were based on the time needed to reach a full response. Moreover, the effect of the soluble guanylyl cyclase inhibitor ODQ (1-H-(1,2,4)-oxadiazol(4,3-a)quinoxalin-1-one) on the dilator responses elicited by the compounds was examined preincubating the aortic rings with ODQ (10 μM) for 20 min. Responses to vasorelaxing agents were measured from the plateau of NA contraction. The IC50 (concentration giving 50% reversal of NA contraction) was interpolated from the plots of relaxant-response vs log molar concentration of tested compound.
During the experimental period, the plateau obtained with NA was stable without significant spontaneous loss of contraction in the aortic rings.
As shown in the following Table 1, the nitroderivatives of the invention were able to induce relaxation in a concentration-dependent manner. Furthermore, in experiments performed in presence of ODQ (10 μM), the vasorelaxant responses to all the tested drugs were inhibited.
IC50 is the concentration which inhibits 50% of the response. Effects of Nitrostatin Derivatives on Inflammatory Pathways In Vitro

murine hindlimb ischemia = experiment: Murine hindlimb ischemia model (capillary density, clinical outcome); format: in vivo, CD1 male mice
Protocol: Angiogenesis is a primary response to local tissue hypoxia and is likely involved in the restoration of blood flow in ischemic diseases such as acute coronary syndromes and occlusive peripheral vascular disease. […] After 3 days, mice were anaesthetized and left hindlimb ischemia was induced by electro-coagulation of the upper part of femoral artery. Treatment was continued for the following 2 weeks after surgery. Systolic blood pressure was measured by tail cuff technique at 7 and 14 days. The clinical outcome at 14 days was determined by counting the number of necrotic or lost nails in the ischemic foot as well as the number of auto-amputation events. At 14 days from ischemia induction, hindlimbs of anaesthetized mice were perfusion-fixed, both adductors were coded and histologically processed. Capillary and arteriolar densities (ncap/mm^2 and nart/mm^2) were determined.

leukocyte adhesion = experiment: Ex vivo leukocyte adhesion to thrombin-stimulated arterial segments of dosed ApoE knockout mice; format: in vivo; settings: ApoE K/O mice, pravastatin 40 mg/kg po or equimolar dose daily for 5 days
Protocol: The interaction between leukocytes and the vascular endothelium is a crucial inflammatory step in the atherogenic process.
Leukocytes were isolated from spleen, centrifuged, RBCs lysed with water. Arterial segments prepared—aortic & thoracic regions opened longitudinally and pinned out luminal side up. Radiolabelled leukocytes (^51Cr-leukocytes) are incubated with thrombin-stimulated (10 UmL−1 for 10 min.) segments for 30 min. Segments are washed with medium and adhesion measured by gamma counter.

COX2 = experiment: Western blot of COX2 protein in LPS-stimulated RAW264.7 cells; format: cell-based
Protocol: as §1

human platelets = experiment: U46619-induced platelet aggregation in vitro; format: cell-based
Protocol: Platelets are prominent components of the thrombi.
Compounds were incubated at 37° C. for 2 min before adding U46619, an aggregating agent, TxA2 analog. Aggregation was followed for 5 min and the maximal amplitude (cm) was measured. DMSO (0.05%) was used as vehicle. Compounds were tested at concentrations ranging from 50 to 200 μM.

[3] = 100 μM, RAW264.7, LPS 1 μg/ml 8 h
[4] = mice, 14 days after ischemia, in chow pravastatin 40 mg/kg or nitroderivative 48 mg/kg
[5] = 10 μM, RAW264.7, LPS 1 μg/ml 16 h, negative = increase vs LPS

Structure (SMILES): CC[C@H](C)C(=O)O[C@H]1C[C@H](O)C=C2C=C[C@H](C)[C@H](CCC(O)C[C@H](O)CC(=O)OCCCCO[N+](=O)[O-])[C@H]21 (relative stereo) [Compound of EX. 1, [1S-[1α(βS*,δS*),2α,6α,8β-(R*),8aα]]-1,2,6,7,8,8a-hexahydro-β,δ,6-trihydroxy-2-methyl-8-(2-methyl-1-oxobutoxy)-1-naphthaleneheptanoic acid 4-(nitrooxy)butyl ester]
- TF in LPS-stimulated MNC: Activity (Tissue factor (TF)): 16 ± 4.9 AU/10^6 cells
- TF in LPS-stimulated MNC: Antigen (Tissue factor (TF)): 0.65 ± 0.11 ng/mg protein
- Antithrombotic activity (%) 1-h before challenge ([1]; 12 mg/kg ip): 30* %
- Antithrombotic activity (%) 3-h before challenge ([1]; 12 mg/kg ip): 40* %
- Antithrombotic activity (%) 1-h before challenge ([1]; 24 mg/kg ip): 40*+ %
- Antithrombotic activity (%) 3-h before challenge ([1]; 24 mg/kg ip): 55*+ %
- iNOS (% reduction vs LPS) (iNOS; [3]): 55.2 ± 11.8%
- IC50 [2]: 2.4 ± 0.6 µM
- clinical outcome in mice with hindlimb ischemia (murine hindlimb ischemia; 14 days, necrotic or lost nails, auto-amputation events): ameliorates clinical outcome
- N capillaries/mm^2 in contralateral adductor muscle (murine hindlimb ischemia; [4]): 660 ± 40 N capillaries/mm^2
- N capillaries/mm^2 in ischemic adductor muscle (murine hindlimb ischemia; [4]): 1116 ± 53^§§**^++ N capillaries/mm^2
- Leukocyte adhesion (%) (thoracic aorta) (leukocyte adhesion): 9.3 ± 3 %
- COX2 (% reduction vs LPS) (COX2; [3]): 74.9 ± 4.4%
- IC50 (human platelets; Platelet, human gel filtered platelets, read-out: Platelet aggregation (GFP) IC50): 101 ± 10 µM
- IC50 (human platelets; human platelet rich plasma, read-out: Platelet aggregation (PRP) IC50): 74 ± 7 µM

Structure (SMILES): CC(C)c1c(C(=O)Nc2ccccc2)c(-c2ccccc2)c(-c2ccc(F)cc2)n1CC[C@@H](O)C[C@@H](O)CC(=O)O [Atorvastatin, atorvastatin, reference compound]
- iNOS (% reduction vs LPS) (iNOS; [5]): 20 ± 14%

- IC50 [2]: 13.4 ± 3.5 µM
Structure (SMILES): CC(C)n1c(/C=C/[C@@H](O)C[C@@H](O)CC(=O)OCCCCO[N+](=O)[O-])c(-c2ccc(F)cc2)c2ccccc21 (relative stereo) [Compound of EX. 3, [R*,S*-(E)]-7-[3-(4-fluorophenyl)-1-(1-methylethyl)-1H-indol-2-yl]-3,5-dihydroxy-6-heptanoic acid 4-(nitrooxy)butyl ester]
- iNOS (% reduction vs LPS) (iNOS; [5]): 44.8 ± 11.9%
- COX2 (% reduction vs LPS) (COX2; [5]): 53.9 ± 6.1%

- IC50 [2]: > 30 µM
Structure (SMILES): CC(C)n1c(/C=C/C(O)CC(O)CC(=O)O)c(-c2ccc(F)cc2)c2ccccc21 (stereo not shown) [Fluvastatin, fluvastatin, reference compound]
- iNOS (% reduction vs LPS) (iNOS; [5]): −14.8 ± 5.9%
- COX2 (% reduction vs LPS) (COX2; [5]): −2.8 ± 3.7%

Structure (SMILES): CC(C)c1c(C(=O)Nc2ccccc2)c(-c2ccccc2)c(-c2ccc(F)cc2)n1CC[C@@H](O)C[C@@H](O)CC(=O)OCCCCO[N+](=O)[O-] [Compound of EX. 7, (βR,δR)-2(4-fluorophenyl)-β,δ-dihydroxy-5-(1-methylethyl)-3-phenyl-4-[(phenylamino)carbon-yl]-1H-pyrrole-1-heptanoic acid 4-(nitrooxy)butyl ester]
- iNOS (% reduction vs LPS) (iNOS; [5]): 45 ± 9%

- IC50 [2]: 8.7 ± 3.3 µM
Structure (SMILES): CC(C)n1c(/C=C/[C@@H](O)C[C@@H](O)CC(=O)OCc2ccc(CO[N+](=O)[O-])cc2)c(-c2ccc(F)cc2)c2ccccc21 (relative stereo) [Compound of EX. 4, [R*,S*-(E)]-7-[3-(4-fluorophenyl)-1-(1-methylethyl)-1H-indol-2-yl]-3,5-dihydroxy-6-heptanoic acid 4-(nitrooxymethyl)benzyl ester]
- iNOS (% reduction vs LPS) (iNOS; [5]): 22.4 ± 9.6%
- COX2 (% reduction vs LPS) (COX2; [5]): 19.4 ± 6.5%

Structure (SMILES): CC[C@H](C)C(=O)O[C@H]1C[C@H](O)C=C2C=C[C@H](C)[C@H](CC[C@@H](O)C[C@@H](O)CC(=O)O)[C@H]21 [Pravastatin, pravastatin, reference compound]
- TF in LPS-stimulated MNC: Activity (Tissue factor (TF)): 189 ± 37.6 AU/10^6 cells
- TF in LPS-stimulated MNC: Antigen (Tissue factor (TF)): 4.4 ± 1.3 ng/mg protein
- Antithrombotic activity (%) 1-h before challenge ([1]; 10 mg/kg ip): 15%
- Antithrombotic activity (%) 3-h before challenge ([1]; 10 mg/kg ip): 10%
- Antithrombotic activity (%) 1-h before challenge ([1]; 20 mg/kg ip): 25%
- Antithrombotic activity (%) 3-h before challenge ([1]; 20 mg/kg ip): 20%
- iNOS (% reduction vs LPS) (iNOS; [3]): 4.7 ± 3.6%
- IC50 [2]: > 30 µM
- N capillaries/mm^2 in contralateral adductor muscle (murine hindlimb ischemia; [4]): 736 ± 40 N capillaries/mm^2
- Leukocyte adhesion (%) (thoracic aorta) (leukocyte adhesion): 23.0 ± 6%
- COX2 (% reduction vs LPS) (COX2; [3]): 26.9 ± 7.9%
